From publication PMC3118801, “Tyrosine Kinase Syk Non-Enzymatic Inhibitors and Potential Anti-Allergic Drug-Like Compounds Discovered by Virtual and In Vitro Screening” (PLoS ONE, 2011)
Converted amounts (≈) assume the structure as drawn. Where two headings read alike, the source gives them in different places.

Assays:
RBL-2H3 mast cells [1] = experiment: FcεRI-induced β-hexosaminidase release (mast cell degranulation); assay type: cell-based, rat
Experimental: The 85 compounds were then tested in a cellular functional assay in order to evaluate their ability to inhibit the liberation of allergic mediators from mast cells. The test is based on the measure of the liberation by exocytosis of the enzyme β-hexosaminidase following the stimulation of the FcεRI, the high affinity receptor for IgE at the surface of mast cells. To this aim, RBL-2H3 mast cells were incubated with each compound for one hour at a final concentration of 20 µM, and β-hexosaminidase release following FcεRI stimulation was measured.
The mouse IgE anti-DNP monoclonal antibody 2682-I was used as hybridoma culture supernatants which contained 1 µg ml^−1 IgE. RBL-2H3 rat basophilic leukaemia cells (ATCC) were maintained as monolayer cultures in RPMI 1640 medium supplemented with 10% fetal bovine serum (Gibco). Measurements of β-hexosaminidase release in RBL-2H3 cells were performed as described, except that after 12–16 h incubation with anti-DNP IgE (0.5 µg ml^−1), cells were incubated for 90 min at 37°C in RPMI medium supplemented with the indicated concentrations of small molecules or DMSO (0.25%). Cells were challenged for 45 min with DNP-BSA (50 ng ml^−1).

[2] = biological target: T1, Syk (GST:Syk 6-242 fusion protein) (Homo sapiens, UniProt P43405); experiment: ELISA-based Antibody Displacement Assay (binding of scFv G4G11 to Syk); conditions: 10 µM small molecule, 100 nM G4G11
T1 construct: Recombinant GST:Syk 6-242 fusion protein [34] was immobilized on an ELISA plate; made in house
Experimental: To determine the ability of the compounds to affect the binding of scFv G4G11 to Syk in vitro, we tested them individually in an ELISA-based Antibody Displacement Assay (see Materials and Methods). For this purpose, all 1000 compounds were reconstituted in DMSO, and they were tested at a final concentration of 10 µM in PBS. Compound C-13 was reconstituted in DMF and was used in parallel as a control. The capacity of each compound to inhibit the binding of G4G11 to Syk was evaluated in comparison to the binding of G4G11 to Syk in PBS (final concentration of 100 nM) containing the appropriate concentrations of DMSO or DMF.
Recombinant GST:Syk 6-242 fusion protein [34] was immobilized on an ELISA plate at final concentration of 10 µg ml^−1. For the screening assay, small molecules diluted in PBS at final concentration of 10 µM were added to the wells for one hour at RT, before adding myc-tagged scFv G4G11 at final concentration of 100 nM for one additional hour. The binding of G4G11 to Syk was evaluated by adding HRP-conjugated mAb 9E10 which detects the amino acid sequence EQKLISEEDLN of human c-myc protein located at the C-terminal end of the scFv.

RBL-2H3 mast cells [3] = experiment: Ionomycin-induced degranulation as control of the degranulation machinery (toxic effects); assay type: cell-based, rat; conditions: ionomycin treatment, concentrations up to 10 µM
Experimental: To address the possible toxic effects of these compounds on degranulation, we performed a dose-dependent experiment in which FcεRI-dependent degranulation of mast cells was performed in parallel with ionomycin-induced degranulation as a control of the degranulation machinery. […] The ADMET profile of our 10 bioactive compounds was analyzed further. […] In addition, the solubility was measured experimentally and the Lipinski “rule of five” descriptors were computed to probe further the molecules from cluster 2 (Table 1).
Figure 5 Compounds 7501888 and 7722851 impair FcεRI-induced mast cell degranulation. β-hexosaminidase release from mast cells was evaluated in comparison to ionomycin-induced degranulation as a control of the machinery.

Syk [4] = biological target: T2, Syk (Homo sapiens, UniProt P43405); experiment: Direct binding to Syk by fluorescence spectroscopy
Experimental: Direct binding to Syk of a selection of these 85 compounds was investigated using fluorescence spectroscopy.
For each compound, the ChemBridge ID and the cluster to which it belongs are reported. Direct binding to Syk of some compounds was measured using fluorescence spectroscopy (Kd: dissociation constant). Antibody inhibition percentage reflects the capacity of each compound to inhibit the binding of scFv G4G11 to Syk (final concentrations of 10 µM for small molecules and 100 nM for G4G11). The ability of each compound to inhibit the liberation of allergic mediators from mast cells is measured (**: IC50 values of cell degranulation ≥20 µM). Some physicochemical properties computed with FAFDrugs2, as well as the possible ADMET problems detected by our tool are reported. The computations involved: molecular weight (MW), logP, topological polar surface area (tPSA), H-bond acceptors and donors (HBA, HBD). (PDF) Click here for additional data file.

[5] = Solubility measurement in PBS by HPLC; assay type: physicochemical; conditions: aqueous buffer, kinetic from dmso stock, from 10 mM DMSO stock, 25°C
Experimental: 4 µl of a 10 mM DMSO stock solution from of each sample were dissolved in 400 µl of PBS and sonicated for 5 minutes. The samples were centrifuged for 15 minutes at 4000 rpm at 25°C, then 250 µl of each sample were transferred to a 96 well plate. 10 µl of each sample were analyzed by HPLC and the sample concentrations were calculated against a series of caffeine standards ranging from 1 to 100 µM.

Syk [6] = biological target: T2, Syk; parameters: method as in PMID 18539317; conditions: cited from earlier work
anaphylactic shock = system: anaphylactic shock; parameters: method as in PMID 18539317; conditions: administered orally to mice; cited from earlier work
RBL-2H3 mast cells [7] = system: RBL-2H3 mast cells; parameters: method as in PMID 18539317; conditions: cited from earlier work
[8] = Table S1, class symbol, read-out: IC50 Cell Degranulation
[9] = Rattus norvegicus, Table 1, RBL-2H3, FcεRI stimulation, β-hexosaminidase release, read-out: IC50 Cell Degranulation
[10] = Rattus norvegicus, RBL-2H3, Table S1, class symbol, read-out: IC50 Cell Degranulation

COc1ccc(C2C(=C(O)c3ccc(C)cc3)C(=O)C(=O)N2CCN2CCOCC2)cc1 (stereo not shown) [compound 6670747]
IC50 (RBL-2H3 mast cells [1]; [8]): ≥ 20 µM
Antibody Inhibition [2]: 50%

COc1cc(-c2nnc(SCC(=O)Nc3ccc(Cl)cc3)n2CCc2ccccc2)cc(OC)c1OC [compound 7501888]
toxic effect on mast cells responses (RBL-2H3 mast cells [3]): no major toxic effect
Kd (Syk [4]; Table 1): 8.2 µM
solubility at 5 min [5]: 6 µM (≈ 3.23 µg/mL)
IC50 (RBL-2H3 mast cells [1]; [9]): 4 µM
Antibody Inhibition [2]: 40%

COc1cccc(C2C(=C(O)c3ccc(C)cc3)C(=O)C(=O)N2CCCN2CCOCC2)c1 (stereo not shown) [compound 6882059]
Kd (Syk [4]; Table S1): 9.4 µM
IC50 (RBL-2H3 mast cells [1]; [8]): ≥ 20 µM
Antibody Inhibition [2]: 79.5%

COc1ccc(C2C(C(=O)c3cccs3)=C(O)C(=O)N2CCN2CCOCC2)cc1OC (stereo not shown) [compound 6677533]
IC50 (RBL-2H3 mast cells [1]; [10]): ≥ 20 µM
Antibody Inhibition [2]: 50%

N#CC1=C(N)Oc2[nH]nc(-c3ccccc3)c2C1c1cccc(OC(=O)c2ccco2)c1 (stereo not shown) [compound 6669449]
IC50 (RBL-2H3 mast cells [1]; [10]): ≥ 20 µM
Antibody Inhibition [2]: 42%

CCOc1ccc(NC(=O)CC2C(=O)N(c3ccc(OC)cc3)C(=S)N2CCN2CCOCC2)cc1 (stereo not shown) [compound 7722914]
Kd (Syk [4]; Table S1): 15.6 µM
IC50 (RBL-2H3 mast cells [1]; Rattus norvegicus, RBL-2H3, Table S1, numeric values, read-out: IC50 Cell Degranulation): 15 µM
Antibody Inhibition [2]: 19%

COc1ccc(C2C(=C(O)c3ccc(F)cc3)C(=O)C(=O)N2CCN2CCOCC2)cc1OC (stereo not shown) [compound 6654239]
IC50 (RBL-2H3 mast cells [1]; [8]): ≥ 20 µM
Antibody Inhibition [2]: 50%

C=CCn1c(SCC(=O)Nc2cccc(OC)c2)nnc1C(C)NC(=O)c1ccccc1 (stereo not shown) [compound 7752193]
Kd (Syk [4]; Table 1): 8 µM
solubility at 5 min [5]: 0.3 µM (≈ 0.135 µg/mL)
IC50 (RBL-2H3 mast cells [1]; [9]): 10 µM
Antibody Inhibition [2]: 35%

Cc1ccc(-c2nnc(Nc3cccc(O)c3)c3ccccc23)cc1S(=O)(=O)NC(C)(C)CO [compound 7238569]
IC50 (RBL-2H3 mast cells [1]; [8]): ≥ 20 µM
Antibody Inhibition [2]: 32%

COC(=O)c1ccc(NC(=O)CN(c2cccc(OC)c2)S(=O)(=O)c2ccccc2)cc1 [compound 7787455]
IC50 (RBL-2H3 mast cells [1]; [10]): ≥ 20 µM
Antibody Inhibition [2]: 20%

COc1cc(NS(=O)(=O)c2ccc(NC(C)=O)cc2)c(OC)cc1NC(=O)c1ccccc1 [compound 6853966]
IC50 (RBL-2H3 mast cells [1]; [8]): ≥ 20 µM
Antibody Inhibition [2]: 58%

COc1ccccc1C(=O)Nc1ccc(-c2nnc(SCC(=O)c3ccccc3)n2C)cc1 [compound 6282824]
Kd (Syk [4]; Table 1): 5.6 µM
solubility at 5 min [5]: 4.5 µM (≈ 2.06 µg/mL)
IC50 (RBL-2H3 mast cells [1]; [9]): 5 µM
Antibody Inhibition [2]: 67.5%

COc1cccc(C2C(=C(O)c3ccccc3)C(=O)C(=O)N2CCCN2CCOCC2)c1OC (stereo not shown) [compound 6891745]
IC50 (RBL-2H3 mast cells [1]; [8]): ≥ 20 µM
Antibody Inhibition [2]: 27.5%

COc1ccc(OC)c(C2C(=C(O)c3ccc(C)cc3)C(=O)C(=O)N2Cc2cccnc2)c1 (stereo not shown) [compound 6652639]
IC50 (RBL-2H3 mast cells [1]; [8]): ≥ 20 µM
Antibody Inhibition [2]: 70.5%

CCOC(=O)c1ccc(NC(=O)CC2C(=O)N(c3ccc(Cl)cc3)C(=S)N2Cc2cccnc2)cc1 (stereo not shown) [compound 7722851]
toxic effect on mast cells responses (RBL-2H3 mast cells [3]): no major toxic effect
Kd (Syk [4]; Table S1): 21.8 µM
IC50 (RBL-2H3 mast cells [1]; Rattus norvegicus, RBL-2H3, FcεRI-dependent degranulation of mast cells, read-out: IC50 (degranulation)): 4 µM
Antibody Inhibition [2]: 39.5%

CCOC(=O)c1ccc(NC(=O)CSc2nnc(-c3ccco3)c(-c3ccco3)n2)cc1 [compound 7495334]
Kd (Syk [4]; Table 1): 1.6 µM
solubility at 5 min [5]: 35.2 µM (≈ 15.9 µg/mL)
IC50 (RBL-2H3 mast cells [1]; [9]): 10 µM
Antibody Inhibition [2]: 43%

COc1ccc(S(=O)(=O)N(CCc2ccccc2)CC(=O)Nc2ccc(C(N)=O)cc2)cc1 [compound 6498669]
Kd (Syk [4]; Table S1): 0.8 µM
IC50 (RBL-2H3 mast cells [1]; [8]): ≥ 20 µM
Antibody Inhibition [2]: 63%

COc1ccc(C2C(=C(O)c3ccc(F)cc3)C(=O)C(=O)N2CCN2CCOCC2)c(OC)c1 (stereo not shown) [compound 6670673]
IC50 (RBL-2H3 mast cells [1]; [8]): ≥ 20 µM
Antibody Inhibition [2]: 50%

Cc1ccc(-n2c3c(cc(C(=O)NC4CC(C)(C)NC(C)(C)C4)c2=O)C(=O)CC(C)(C)C3)cc1 [compound 6866968]
IC50 (RBL-2H3 mast cells [1]; [8]): ≥ 20 µM
Antibody Inhibition [2]: 57.5%

COC(=O)c1ccccc1-c1ccc(C=C2SC(=S)N(Cc3ccccc3)C2=O)o1 [C-13, methyl 2-{5-[(3-benzyl-4-oxo-2-thioxo-1,3-thiazolidin-5-ylidene)methyl]-2-furyl}benzoate, reference compound]
effects on the enzymatic activity of Syk (Syk [6]): no effects
Kd (Syk [4]; Table 1): 4 µM
IC50 (RBL-2H3 mast cells [1]; [9]): 2 µM
Antibody Inhibition [2]: 81%
anaphylactic shock in vivo (anaphylactic shock): inhibits
FcεRI-induced mast cell degranulation in vitro (RBL-2H3 mast cells [7]): inhibits

C=CCn1c(CNC(=O)c2cccc(C)c2)nnc1SCC(=O)Nc1cccc(C(=O)OC(C)C)c1 [compound 7783660]
Kd (Syk [4]; Table 1): 4.8 µM
solubility at 5 min [5]: 12.9 µM (≈ 6.55 µg/mL)
IC50 (RBL-2H3 mast cells [1]; [9]): 10 µM
Antibody Inhibition [2]: 27%

O=C(Nc1ccccc1C(=O)N1CCCC1)c1ccc(CN2CCc3ccccc3C2)cc1 [compound 7199725]
IC50 (RBL-2H3 mast cells [1]; [8]): ≥ 20 µM
Antibody Inhibition [2]: 25%
